Measurements: PMC6915745, “TRIB3 supports breast cancer stemness by suppressing FOXO1 degradation and enhancing SOX2 transcription” (Nature Communications, 2019)
Where two headings read alike, the source gives them in different places. One block for each molecule: values may come before it. Peptide text beside a SMILES is read from it. * marks the point of attachment. Cbz = O=C(OCc1ccccc1)*

Experiments:
[1] = tested on: FOXO1; experiment: FOXO1 protein stability (cycloheximide chase), MCF7 cells; assay type: cell-based, human; conditions: for FOXO1 half-life: CHX, authors' reply to reviewers, control about 3 hr; for degradation of FOXO1: CHX 20 μM plus BAF 200 nM or MG132 10 μM, in words
Experimental: Fig. 5 TRIB3 stabilizes the FOXO1 protein by suppressing its ubiquitination. a, b HMLE cells transfected with a TRIB3-expressing vector vs. a control vector (a) or MCF7 cells transfected with TRIB3-shRNA vs. CTRL-shRNA (b) were incubated with 20 μM cycloheximide (CHX) for the indicated times. c, d The effect of TRIB3 depletion on FOXO1 degradation in vitro. MCF7 cells (c) were incubated with CHX (20 μM), CHX plus bafilomycin (BAF, 200 nM), or MG132 (10 μM) for the indicated times. Control or TRIB3-silenced MCF7 cells (d, top) and MDA-MB-231 cells (d, bottom) were incubated with DMSO, 200 nM BAF, or 10 μM MG132 for 8 h. The indicated proteins were detected by immunoblotting. e, f FOXO1 activity in HMLE cells (e) transfected with a control vector or a TRIB3-expressing vector, or in MCF7 cells (f) transfected with CTRL-shRNA or TRIB3-shRNA and either a control vector or a FOXO1-expressing vector. g, h The effect of TRIB3 on FOXO1 ubiquitination. HMLE (g) or MCF7 cells (h) were transfected with the indicated plasmid. His-ubiquitin-conjugated proteins were pulled down from cell lysates. Total protein lysates and Ni-NTA-agarose eluates were immunoblotted for FLAG, His, and TRIB3. Source data are provided as a Source Data file. […] I left them out because their labels are genetic constructs, not substances; their digits are also small
(§1) Cycloheximide (CHX; Sigma Aldrich, R750107) was used as a protein synthesis inhibitor to assess the stability of the existing proteins. To assess protein stability, cells were treated with 20 μM CHX and the proteasome inhibitor MG132 (Sigma Aldrich, R750107) at 10 μM or the autophagy inhibitor BAF (Sigma Aldrich, B1793) at 200 nM for the indicated times. Protein expression was assessed via immunoblot analysis with cell lysates (20–60 μg) prepared in RIPA lysis buffer containing protease inhibitors (Roche) using anti-SOX2 (3529), anti-NANOG (4903), anti-OCT4 (2750), anti-KLF4 (4038), anti-c-Myc (13987), anti-FOXO1 (2880), anti-p-FOXO1 (9461), anti-AKT (4685), anti-p-AKT (4060), anti-β-ACTIN (4970), anti-Ubiquitin (3936), or anti-LaminA/C (4777) antibodies from CST; anti-TRIB3 antibody (ab75846) from Abcam; and anti-Trib3 antibody (PA5-15480) from Thermo Fisher Scientific[59]. All antibodies were used at 1:1000 dilution, with the exception of anti-β-Actin antibodies, which were used at 1:2000 dilution. The protein concentrations were determined by BCA Protein Assay Kits (Pierce). Proteins were separated by SDS-polyacrylamide gel electrophoresis (PAGE) and transferred to polyvinylidene difluoride membrane.

[2] = tested on: HMLE cells overexpressing TRIB3; experiment: Immunoblot of AKT1/FOXO1/SOX2, HMLE cells with AKT1 agonist SC79; assay type: cell-based, human; conditions: for Relative fold change AKT1 / Relative fold change FOXO1 / Relative fold change SOX2 / Relative fold change TRIB3 / Relative fold change p-AKT(473S) / Relative fold change p-FOXO1(256S): Fig.6d, HMLE, TRIB3-shRNA, v.s CTRL-shRNA+DMSO
Text: (§2) Fig. 6 TRIB3 abrogates the AKT-FOXO1 interaction. a Supervised clustering of MCF7 cells transfected with CTRL-shRNA or TRIB3-shRNA using the log2-transformed values for genes in the FOXO1 upstream pathway, including AMPK, ERK, PI3K, p38, and JNK clustered genes expressed in all samples. Each column represents a separate case. Z-scores from IPA depicting the subnetwork gene expression differences between CTRL-shRNA and TRIB3-shRNA cases. The Z-score heat map depicts the five FOXO1 upstream subnetworks. Each row represents the data for the subnetwork indicated in the right margin. b, c TRIB3 inhibited the activity of AKT1 in BCCs. The indicated stable expression cell extracts were prepared and the levels of the indicated proteins were detected by immunoblotting. d, e The effects of the AKT1 agonist or antagonist for TRIB3-FOXO1-SOX2 axis in BCCs. The indicated cells were treated with the AKT1 agonist SC79 or the antagonist MK2206 for 24 h. […] HMLE cell extracts were IP with an anti-AKT1 Ab and blotted with an anti-TRIB3 or anti-FOXO1 Ab in the presence of the indicated concentration of the TRIB3-GST protein. Data are shown as the mean ± SEM; P > 0.05 was considered not significant (NS); *P < 0.05, **P < 0.01, and ***P < 0.001 compared with the vector or CTRL-shRNA group. Source data are provided as a Source Data file.
as §1

[3] = tested on: TRIB3; experiment: TRIB3 expression after cytokines or stressors, MCF7 cells (WB); assay type: cell-based, human; conditions: cytokines 8 hr, high glucose 24 hr
Experimental: as §1, with “membrane. […]” for “membrane.”
(f, g) The expression of
TRIB3 in MCF7 cells (top) or MDA-MB-231 cells (bottom) treated with various concentrations of IL6 for
8 hr (f) or 10 ng/ml IL-6 for different amounts of time (g) was detected by WB. (h) Silencing TRIB3
decreased the tumor sphere formation ability of MCF7 cells with or without IL-6 stimulation. […]
Data are shown as the mean ± SEM; P>0.05 was considered not significant (N.S.); *P<0.05, **P<0.01
and ***P<0.001, compared with the con group in panels d-f. Source data are provided as a Source Data

[4] = tested on: MCF7 cells; experiment: TRIB3/AKT/FOXO1/SOX2 axis after IL-6, CoCl2 or high glucose, MCF7 cells (WB); assay type: cell-based, human
[5] = tested on: FOXO1; experiment: FOXO1 immunoblot in control or TRIB3-silenced MCF7 cells with BAF or MG132; assay type: cell-based, human; conditions: BAF 200 nM or MG132 10 μM, 8 h, in words
Experimental: (§3) Fig. 5 TRIB3 stabilizes the FOXO1 protein by suppressing its ubiquitination. a, b HMLE cells transfected with a TRIB3-expressing vector vs. a control vector (a) or MCF7 cells transfected with TRIB3-shRNA vs. CTRL-shRNA (b) were incubated with 20 μM cycloheximide (CHX) for the indicated times. c, d The effect of TRIB3 depletion on FOXO1 degradation in vitro. MCF7 cells (c) were incubated with CHX (20 μM), CHX plus bafilomycin (BAF, 200 nM), or MG132 (10 μM) for the indicated times. Control or TRIB3-silenced MCF7 cells (d, top) and MDA-MB-231 cells (d, bottom) were incubated with DMSO, 200 nM BAF, or 10 μM MG132 for 8 h. The indicated proteins were detected by immunoblotting. e, f FOXO1 activity in HMLE cells (e) transfected with a control vector or a TRIB3-expressing vector, or in MCF7 cells (f) transfected with CTRL-shRNA or TRIB3-shRNA and either a control vector or a FOXO1-expressing vector. g, h The effect of TRIB3 on FOXO1 ubiquitination. HMLE (g) or MCF7 cells (h) were transfected with the indicated plasmid. His-ubiquitin-conjugated proteins were pulled down from cell lysates. Total protein lysates and Ni-NTA-agarose eluates were immunoblotted for FLAG, His, and TRIB3. […]
(§4) Cycloheximide (CHX; Sigma Aldrich, R750107) was used as a protein synthesis inhibitor to assess the stability of the existing proteins. […] The protein concentrations were determined by BCA Protein Assay Kits (Pierce). […]

[6] = tested on: FOXO1; experiment: FOXO1 immunoblot in control or TRIB3-silenced MDA-MB-231 cells with BAF or MG132; assay type: cell-based; conditions: BAF 200 nM or MG132 10 μM, 8 h, in words
Experimental: as §3, §4

[7] = tested on: TRIB3-silenced MCF7 cells; experiment: Immunoblot of AKT1/FOXO1/SOX2, TRIB3-silenced MCF7 cells with AKT1 inhibitor MK2206; assay type: cell-based, human; conditions: Fig.6e, MCF7, TRIB3-shRNA, v.s CTRL-shRNA+DMSO
Text: as §2, §1

[8] = target: T1, TRIB3-GST protein (UniProt Q96RU7 1-358); experiment: SPR
T1 chain: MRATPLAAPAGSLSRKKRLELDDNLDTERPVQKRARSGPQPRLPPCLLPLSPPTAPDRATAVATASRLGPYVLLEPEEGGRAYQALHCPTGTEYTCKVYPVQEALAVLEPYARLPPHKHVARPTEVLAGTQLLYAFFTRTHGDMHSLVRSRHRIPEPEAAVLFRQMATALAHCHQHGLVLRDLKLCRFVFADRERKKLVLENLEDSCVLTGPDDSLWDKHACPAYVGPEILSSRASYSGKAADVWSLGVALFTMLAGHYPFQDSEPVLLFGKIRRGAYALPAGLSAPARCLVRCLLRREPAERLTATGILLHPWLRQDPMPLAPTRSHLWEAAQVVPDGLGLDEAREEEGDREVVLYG

[9] = HMLE cells overexpressing TRIB3, 24 h

Molecule: O=c1cc(N2CCOCC2)oc2c(-c3ccccc3)cccc12 [LY294002]
FOXO1 half-life [1]: 4.4 h

Molecule: CCOC(=O)C1=C(N)Oc2ccc(Cl)cc2C1C(C#N)C(=O)OCC (stereo not drawn) [SC79]
Relative fold change AKT1 ([2]; replicate 1): 1.9500
Relative fold change FOXO1 ([2]; replicate 1): 0.4880
Relative fold change SOX2 ([2]; replicate 1): 5.8119
Relative fold change TRIB3 ([2]; replicate 1): 6.9492
Relative fold change p-AKT(473S) ([2]; replicate 1): 1.6733
Relative fold change p-FOXO1(256S) ([2]; replicate 1): 1.9882
Relative fold change AKT1 ([2]; replicate 2): 2.1500
Relative fold change FOXO1 ([2]; replicate 2): 0.5280
Relative fold change SOX2 ([2]; replicate 2): 6.4119
Relative fold change TRIB3 ([2]; replicate 2): 7.5492
Relative fold change p-AKT(473S) ([2]; replicate 2): 1.7733
Relative fold change p-FOXO1(256S) ([2]; replicate 2): 2.1782
Relative fold change AKT1 ([2]; replicate 3): 1.7500
Relative fold change FOXO1 ([2]; replicate 3): 0.4480
Relative fold change SOX2 ([2]; replicate 3): 5.2119
Relative fold change TRIB3 ([2]; replicate 3): 6.3492
Relative fold change p-AKT(473S) ([2]; replicate 3): 1.5733
Relative fold change p-FOXO1(256S) ([2]; replicate 3): 1.7982
FOXO1 and SOX2 expression [2, 9]: inhibited FOXO1 and SOX2 expression
activity of AKT1 S473 and FOXO1 S256 [2, 9]: rescued the activity of AKT1^S473 and FOXO1^S256

Molecule: IL-1β: cytokine
TRIB3 expression [3]: enhanced TRIB3 expression in MCF7 cells

Molecule: OC[C@H]1OC(O)[C@H](O)[C@@H](O)[C@@H]1O (stereo partly drawn) [high glucose, glucose]
TRIB3 expression [3]: enhanced TRIB3 expression in MCF7 cells
expressions of FOXO1 and SOX2 ([4]; MCF7 cells, IL-6 12 hr, CoCl2 24 hr, high glucose 24 hr, WB): enhanced expressions of FOXO1 and SOX2
expressions of FOXO1 and SOX2 ([4]; MCF7 cells, IL-6 12 hr, CoCl2 24 hr, high glucose 24 hr, WB, listed as high-glucose): enhance
activity of FOXO1 S256 ([4]; MCF7 cells, IL-6 12 hr, high glucose 24 hr, WB): reduced the activity of FOXO1^S256

Molecule: transforming growth factor-β
TRIB3 expression [3]: enhanced TRIB3 expression in MCF7 cells

Molecule: tumor necrosis factor-α
TRIB3 expression [3]: enhanced TRIB3 expression in MCF7 cells

Molecule: [Cl-].[Cl-].[Co+2] [CoCl2, reference compound]
expressions of FOXO1 and SOX2 [4]: enhance

Molecule: CC(C)C[C@@H](C=O)NC(=O)[C@H](CC(C)C)NC(=O)[C@H](CC(C)C)NC(=O)OCc1ccccc1 [MG132] (Cbz-Leu-Leu-Leu-aldehyde)
degradation of FOXO1 [1]: inhibited by the proteasome inhibitor MG132
FOXO1 half-life [1]: 6 h
inhibition of FOXO1 reduction caused by TRIB3 silencing [5]: inhibited by MG132
inhibition of FOXO1 reduction caused by TRIB3 silencing [6]: inhibited by MG132

Molecule: CO/C1=C\C(C)=C\[C@@H](C)[C@@H](O)[C@@H](C)C/C(C)=C/C=C/[C@H](OC)[C@@H]([C@@H](C)[C@@H](O)[C@H](C)[C@@]2(O)C[C@@H](O)[C@H](C)[C@@H](C(C)C)O2)OC1=O [BAF, bafilomycin]
degradation of FOXO1 [1]: not by the autophagy inhibitor bafilomycin
inhibition of FOXO1 reduction caused by TRIB3 silencing [5]: not by BAF
inhibition of FOXO1 reduction caused by TRIB3 silencing [6]: not by BAF

Molecule: NC1(c2ccc(-c3nc4ccn5c(=O)[nH]nc5c4cc3-c3ccccc3)cc2)CCC1 [MK-2206]
Relative fold change AKT1 ([7]; replicate 1): 0.657
Relative fold change FOXO1 ([7]; replicate 1): 1.341
Relative fold change SOX2 ([7]; replicate 1): 0.604
Relative fold change TRIB3 ([7]; replicate 1): 0.180
Relative fold change p-AKT(473S) ([7]; replicate 1): 0.243
Relative fold change p-FOXO1(256S) ([7]; replicate 1): 0.564
Relative fold change AKT1 ([7]; replicate 2): 0.717
Relative fold change FOXO1 ([7]; replicate 2): 1.441
Relative fold change SOX2 ([7]; replicate 2): 0.664
Relative fold change TRIB3 ([7]; replicate 2): 0.200
Relative fold change p-AKT(473S) ([7]; replicate 2): 0.263
Relative fold change p-FOXO1(256S) ([7]; replicate 2): 0.614
Relative fold change AKT1 ([7]; replicate 3): 0.597
Relative fold change FOXO1 ([7]; replicate 3): 1.241
Relative fold change SOX2 ([7]; replicate 3): 0.544
Relative fold change TRIB3 ([7]; replicate 3): 0.160
Relative fold change p-AKT(473S) ([7]; replicate 3): 0.223
Relative fold change p-FOXO1(256S) ([7]; replicate 3): 0.514

Kd [8]: 170 nM
Molecule: EVAATLTENRVLQN [M3]

Kd [8]: 750 nM
Molecule: EVAHTLTENRALQN [M10]

Kd [8]: 300 nM
Molecule: VAHTLTENRVLQN [peptide Ae]
